Test results published in the supplement of paper PMC10307832.

Columns and labels:
Assay in all cases: relative viability (nuclei count vs DMSO), 5 days (fraction); higher = more cells survive
[1] = compound: CN[C@@H]1C[C@H]2O[C@@](C)([C@@H]1OC)n1c3ccccc3c3c4c(c5c6ccccc6n2c5c31)C(=O)NC4 [Staurosporine] + CCNC(=O)c1noc(-c2cc(C(C)C)c(O)cc2O)c1-c1ccc(CN2CCOCC2)cc1 [Luminespib] (partner 0.01 µM)
In short: (§1)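 Each reported value is a median over duplicate plates. It expresses relative viability: treated-well nuclei count divided by vehicle-well nuclei count. Lung cancer cell lines in 1536-well plates were dosed by pin tool a day after seeding, alone with one drug or with a fixed anchor-drug dose plus five library-drug doses (not always all listed) in √10 steps, and nuclei were counted after 5 days.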

[2] = compound: O=c1[nH]cc(F)c(=O)[nH]1 [5-Fluorouracil] + CCNC(=O)c1noc(-c2cc(C(C)C)c(O)cc2O)c1-c1ccc(CN2CCOCC2)cc1 [Luminespib] (partner 0.01 µM)
In short: as §1

[3] = compound: CN[C@@H]1C[C@H]2O[C@@](C)([C@@H]1OC)n1c3ccccc3c3c4c(c5c6ccccc6n2c5c31)C(=O)NC4 [Staurosporine] + CC(C)C[C@H](NC(=O)[C@H](Cc1ccccc1)NC(=O)c1cnccn1)B(O)O [Bortezomib] (partner 0.002 µM)
In short: as §1

Sulindac + Pemetrexed = compound: CC1=C(CC(=O)O)c2cc(F)ccc2/C1=C\c1ccc([S+](C)[O-])cc1 [Sulindac] + Nc1nc2[nH]cc(CCc3ccc(C(=O)N[C@@H](CCC(=O)O)C(=O)O)cc3)c2c(=O)[nH]1 [Pemetrexed] (partner 0.2 µM)
In short: as §1

| Cell Line | relative viability ([1]; first compound 0.005 µM) | relative viability ([1]; first compound 0.01581 µM) | relative viability ([1]; first compound 0.05 µM) | relative viability ([1]; first compound 0.1581 µM) | relative viability ([1]; first compound 0.5 µM) | relative viability ([2]; first compound 0.02 µM) | relative viability ([2]; first compound 0.2 µM) | relative viability ([2]; first compound 0.6325 µM) | relative viability ([2]; first compound 2 µM) | relative viability ([3]; first compound 0.005 µM) | relative viability ([3]; first compound 0.01581 µM) | relative viability ([3]; first compound 0.05 µM) | relative viability ([3]; first compound 0.1581 µM) | relative viability ([3]; first compound 0.5 µM) | relative viability (Sulindac + Pemetrexed; first compound 0.08 µM) | relative viability (Sulindac + Pemetrexed; first compound 0.253 µM) | relative viability (Sulindac + Pemetrexed; first compound 0.8 µM) | relative viability (Sulindac + Pemetrexed; first compound 2.53 µM) | relative viability (Sulindac + Pemetrexed; first compound 8 µM) |
| --- | --- | --- | --- | --- | --- | --- | --- | --- | --- | --- | --- | --- | --- | --- | --- | --- | --- | --- | --- |
| HCC-44 | 0.416 | 0.169 | 0.161 | 0.187 | 0.137 | 1.29 | 1.22 | 0.853 | 0.355 | 0.708 | 0.367 | 0.169 | 0.142 | 0.0976 | 0.663 | 0.695 | 0.667 | 0.632 | 0.646 |
| HCC-78 | – | – | – | – | – | – | – | – | – | 0.483 | 0.388 | 0.256 | 0.404 | 0.332 | 0.923 | 0.878 | 0.751 | 0.924 | 0.953 |
| HCC-366 | – | – | – | – | – | – | – | – | – | 1.13 | – | 0.208 | 0.0142 | 0.0141 | 0.205 | 0.183 | – | 0.14 | 0.172 |
| HCC-827 | 0.997 | 0.532 | 0.13 | 0.139 | 0.121 | 0.399 | 0.691 | 0.465 | 0.239 | 0.942 | 0.874 | 0.915 | 0.564 | 0.582 | 0.286 | 0.282 | 0.249 | 0.241 | 0.26 |
| HOP-62 | 0.949 | 0.426 | 0.189 | 0.134 | 0.109 | 0.953 | 0.92 | 0.853 | 0.855 | 0.976 | 0.495 | 0.186 | 0.0948 | 0.0922 | 0.412 | 0.27 | 0.31 | 0.258 | 0.389 |
| IA-LM | – | – | – | – | – | – | – | – | – | 0.188 | – | 0.238 | 0.131 | 0.07 | – | – | – | – | – |
| LC-2-ad | 0.976 | 0.41 | 0.341 | 0.219 | 0.185 | 1.09 | 0.666 | 0.407 | 0.337 | 0.973 | 0.096 | 0.508 | 0.0851 | 0.0564 | 0.29 | 0.27 | 0.273 | 0.263 | 0.254 |
| LK-2 | 0.202 | – | 0.187 | 0.153 | 0.172 | – | – | – | – | – | – | – | – | – | 0.315 | 0.29 | 0.228 | 0.221 | 0.293 |
| NCI-H358 | 0.563 | 0.198 | 0.359 | 0.167 | 0.0923 | 0.388 | 0.307 | 0.308 | 0.145 | – | – | – | – | – | 0.183 | 0.157 | 0.17 | 0.151 | 0.182 |
| NCI-H522 | 1.2 | 1.14 | 0.719 | 0.758 | 0.751 | 1.14 | 1.19 | 1.17 | 0.961 | – | – | – | – | – | 0.859 | 0.985 | 1.05 | 0.88 | 0.96 |
| NCI-H727 | 0.291 | 0.373 | 0.252 | 0.223 | 0.183 | 0.329 | 0.402 | 0.345 | 0.295 | 0.703 | 0.354 | 0.345 | 0.352 | 0.158 | – | – | – | – | – |
| NCI-H1299 | – | – | – | – | – | – | – | – | – | 1.1 | 1.03 | 0.433 | 0.255 | 0.169 | – | – | – | – | – |
| NCI-H1395 | 0.613 | 0.507 | 0.349 | 0.318 | 0.346 | 0.638 | 0.675 | 0.743 | 0.658 | – | – | – | – | – | 0.931 | 1.02 | 0.828 | 0.855 | 1.12 |
| NCI-H1623 | 0.55 | 0.531 | 0.401 | 0.419 | 0.296 | 0.395 | 0.361 | 0.412 | 0.364 | – | – | – | – | – | – | – | – | – | – |
| NCI-H1648 | – | – | – | – | – | – | – | – | – | – | – | – | – | – | 0.889 | 0.781 | – | 0.569 | 0.787 |
| NCI-H1703 | – | – | – | – | – | – | – | – | – | 0.215 | 0.165 | 0.11 | 0.157 | 0.111 | – | – | – | – | – |
| NCI-H1793 | 0.252 | – | 0.188 | 0.131 | 0.13 | 0.205 | 0.183 | 0.203 | 0.176 | – | – | – | – | – | 0.957 | 0.824 | – | 1.13 | 1.14 |
| NCI-H1944 | 0.928 | 0.507 | 0.41 | 0.44 | 0.187 | 0.73 | 0.625 | 0.3 | 0.185 | – | – | – | – | – | 0.701 | 0.636 | 0.412 | 0.582 | 0.722 |
| NCI-H2170 | 0.587 | – | 0.463 | 0.238 | 0.148 | 0.507 | 0.541 | 0.503 | 0.3 | – | – | – | – | – | 0.282 | 0.252 | 0.371 | 0.267 | 0.278 |
| NCI-H2342 | 0.843 | 0.69 | 0.49 | 0.47 | 0.334 | 0.807 | 0.731 | 0.616 | 0.467 | – | – | – | – | – | 0.742 | 0.714 | 0.739 | 0.746 | 0.781 |
| SK-MES-1 | – | 0.204 | 0.121 | 0.149 | 0.124 | 1.07 | 0.606 | 0.349 | 0.255 | – | – | – | – | – | 1.12 | 0.99 | 1.03 | 1.03 | 1.06 |
| SW 900 | 0.164 | 0.149 | 0.134 | 0.14 | 0.161 | 0.153 | 0.161 | 0.213 | 0.196 | – | – | – | – | – | 0.532 | 0.492 | – | – | 0.453 |
